Assay results from patent US20220048876A1, “INSECTICIDAL COMPOUNDS” (SYNGENTA PARTICIPATIONS AG, priority 2018, published 2022).
Like-named read-outs stand apart in the source and are kept apart here.

Experiments:
Assay type in all cases: in vivo
Diabrotica balteata = Diabrotica balteata (corn root worm), sprayed maize sprouts; details: 96 h, read-out: effect in at least one of the two categories (mortality or growth inhibition); for percent effect (mortality or growth inhibition) at 200 ppm: application rate 200 ppm, L2 larvae, 4 days after infestation
Experimental: Diabrotica balteata (Corn Root Worm)
Maize sprouts placed onto an agar layer in 24-well microtiter plates were treated with aqueous test solutions prepared from 10′000 ppm DMSO stock solutions by spraying. After drying, the plates were infested with L2 larvae (6 to 10 per well). The samples were assessed for mortality and growth inhibition in comparison to untreated samples 4 days after infestation.

Euschistus heros = Euschistus heros (neotropical brown stink bug), sprayed soybean leaves; details: 120 h, read-out: effect in at least one of the two categories (mortality or growth inhibition); for percent effect (mortality or growth inhibition) at 200 ppm: application rate 200 ppm, N2 nymphs, 5 days after infestation
Experimental: Euschistus heros(Neotropical Brown Stink Bug)
Soybean leaves on agar in 24-well microtiter plates were sprayed with aqueous test solutions prepared from 10′000 ppm DMSO stock solutions. After drying the leaves were infested with N2 nymphs. The samples were assessed for mortality and growth inhibition in comparison to untreated samples 5 days after infestation.

Myzus persicae = Myzus persicae (green peach aphid), intrinsic activity; details: 120 h
Source text: Myzus persicae (Green Peach Aphid). Intrinsic Activity
Test compounds prepared from 10′000 ppm DMSO stock solutions were applied by pipette into 24-well microtiter plates and mixed with sucrose solution. The plates were closed with a stretched Parafilm. A plastic stencil with 24 holes was placed onto the plate and infested pea seedlings were placed directly on the Parafilm. The infested plate was closed with a gel blotting paper and another plastic stencil and then turned upside down. The samples were assessed for mortality 5 days after infestation.

Plutella xylostella = Plutella xylostella (diamond back moth), artificial diet; details: 120 h, read-out: effect in at least one of the two categories (mortality or growth inhibition); for percent effect (mortality or growth inhibition) at 200 ppm: application rate 200 ppm, L2 larvae, 5 days after infestation
Experimental: Plutella xylostella (Diamond Back Moth)
24-well microtiter plates with artificial diet were treated with aqueous test solutions prepared from 10′000 ppm DMSO stock solutions by pipetting. After drying, the plates were infested with L2 larvae (10 to 15 per well). The samples were assessed for mortality and growth inhibition in comparison to untreated samples 5 days after infestation.

Spodoptera littoralis = Spodoptera littoralis (Egyptian cotton leaf worm), cotton leaf discs; details: foliar, 72 h, read-out: control (mortality, anti-feedant effect or growth inhibition)
Experimental: Spodoptera littoralis (Egyptian Cotton Leaf Worm)
Cotton leaf discs were placed onto agar in 24-well microtiter plates and sprayed with aqueous test solutions prepared from 10′000 ppm DMSO stock solutions. After drying the leaf discs were infested with five L1 larvae. The samples were assessed for mortality, anti-feeding effect, and growth inhibition in comparison to untreated samples 3 days after infestation. Control of Spodoptera littoralis by a test sample is given when at least one of the categories mortality, anti-feedant effect, and growth inhibition is higher than the untreated sample.

Tetranychus urticae = Tetranychus urticae (two-spotted spider mite), feeding/contact activity; details: 192 h
Experimental: Tetranychus urticae (Two-Spotted Spider Mite):Feeding/Contact Activity
Bean leaf discs on agar in 24-well microtiter plates were sprayed with aqueous test solutions prepared from 10′000 ppm DMSO stock solutions. After drying the leaf discs were infested with a mite population of mixed ages. The samples were assessed for mortality on mixed population (mobile stages) 8 days after infestation.

Thrips tabaci = Thrips tabaci (onion thrips), feeding/contact activity; details: 144 h
Experimental: Thrips tabaci (Onion Thrips) Feeding/Contact Activity
Sunflower leaf discs were placed on agar in 24-well microtiter plates and sprayed with aqueous test solutions prepared from 10′000 ppm DMSO stock solutions. After drying the leaf discs were infested with a thrips population of mixed ages. The samples were assessed for mortality 6 days after infestation.

[1] = test rate 12 ppm, 5 days after infestation, read-out: mortality
[2] = application rate 200 ppm, L1 larvae, 3 days after infestation
[3] = application rate 200 ppm, mixed population (mobile stages), 8 days after infestation, read-out: mortality
[4] = application rate 200 ppm, mixed ages, 6 days after infestation, read-out: mortality

Cc1cc(C2=NCC(c3cc(Cl)c(Cl)c(Cl)c3)(C(F)(F)F)C2)ccc1C(=O)NCC1(C#N)CC1 (centres unmarked) [Compound A5, N-[(1-cyanocyclopropyl)methyl]-2-methyl-4-[3-(3,4,5-trichlorophenyl)-3-(trifluoromethyl)-2,4-dihydropyrrol-5-yl]benzamide]
≥ 80%: percent effect (mortality or growth inhibition) at 200 ppm (Diabrotica balteata) | percent effect (mortality or growth inhibition) at 200 ppm (Euschistus heros) | mortality at 12 ppm (Myzus persicae; [1]) | percent effect (mortality or growth inhibition) at 200 ppm (Plutella xylostella) | percent control (mortality, anti-feedant effect or growth inhibition) at 200 ppm (Spodoptera littoralis; [2]) | mortality at 200 ppm (Tetranychus urticae; [3]) | mortality at 200 ppm (Thrips tabaci; [4])

Cc1cc(C2=NO[C@](c3cc(Cl)cc(Cl)c3)(C(F)(F)F)[C@H]2Cl)ccc1C(=O)NCC1(C#N)CC1 [Compound A3, 4-[(4S,5R)-4-chloro-5-(3,5-dichlorophenyl)-5-(trifluoromethyl)-4H-isoxazol-3-yl]-N-[(1-cyanocyclopropyl)methyl]-2-methyl-benzamide]
≥ 80%: percent control (mortality or growth inhibition) at 200 ppm (Diabrotica balteata) | percent control (mortality or growth inhibition) at 200 ppm (Euschistus heros) | mortality at 12 ppm (Myzus persicae) | percent control (mortality or growth inhibition) at 200 ppm (Plutella xylostella) | percent control (mortality, anti-feedant effect or growth inhibition) at 200 ppm (Spodoptera littoralis) | mortality at 200 ppm (Tetranychus urticae) | mortality at 200 ppm (Thrips tabaci)

Cc1cc(C2=NS[C@@](c3cc(Cl)cc(Cl)c3)(C(F)(F)F)C2)ccc1C(=O)NCC1(C#N)CC1 [Compound A1, N-[(1-cyanocyclopropyl)methy]-4-[(5S)-5-(3,5-dichlorophenyl)-5-(trifluoromethyl)-4H-isothiazol-3-yl]-2-methyl-benzamide]
≥ 80%: percent effect (mortality or growth inhibition) at 200 ppm (Diabrotica balteata) | percent effect (mortality or growth inhibition) at 200 ppm (Euschistus heros) | mortality at 12 ppm (Myzus persicae; [1]) | percent effect (mortality or growth inhibition) at 200 ppm (Plutella xylostella) | percent control (mortality, anti-feedant effect or growth inhibition) at 200 ppm (Spodoptera littoralis; [2]) | mortality at 200 ppm (Tetranychus urticae; [3]) | mortality at 200 ppm (Thrips tabaci; [4])

Cc1cc(C2=COC(c3cc(Cl)cc(Cl)c3)(C(F)(F)F)C2)ccc1C(=O)NCC1(C#N)CC1 (centres unmarked) [Compound A2, N-[(1-cyanocyclopropyl)methyl]-4-[2-(3,5-dichlorophenyl)-2-(trifluoromethyl)-3H-furan-4-yl]-2-methyl-benzamide]
≥ 80%: percent effect (mortality or growth inhibition) at 200 ppm (Diabrotica balteata) | percent effect (mortality or growth inhibition) at 200 ppm (Euschistus heros) | mortality at 12 ppm (Myzus persicae; [1]) | percent effect (mortality or growth inhibition) at 200 ppm (Plutella xylostella) | percent control (mortality, anti-feedant effect or growth inhibition) at 200 ppm (Spodoptera littoralis; [2]) | mortality at 200 ppm (Tetranychus urticae; [3]) | mortality at 200 ppm (Thrips tabaci; [4])

Cc1cc(C2=NCC(c3cc(Cl)c(F)c(Cl)c3)(C(F)(F)F)C2)ccc1C(=O)NCC1(C#N)CC1 (centres unmarked) [Compound A4, N-[(1-cyanocyclopropyl)methyl]-4-[3-(3,5-dichloro-4-fluorophenyl)-3-(trifluoromethyl)-2,4-dihydropyrrol-5-yl]-2-methyl-benzamide]
≥ 80%: percent effect (mortality or growth inhibition) at 200 ppm (Diabrotica balteata) | percent effect (mortality or growth inhibition) at 200 ppm (Euschistus heros) | mortality at 12 ppm (Myzus persicae; [1]) | percent effect (mortality or growth inhibition) at 200 ppm (Plutella xylostella) | percent control (mortality, anti-feedant effect or growth inhibition) at 200 ppm (Spodoptera littoralis; [2]) | mortality at 200 ppm (Tetranychus urticae; [3]) | mortality at 200 ppm (Thrips tabaci; [4])
